Values after ≈ are worked out from the molar mass of the structure shown. Like-named read-outs stand apart in the source and are kept apart here.
Experiments:
[1] = system: Molt-4 cells and Molt-4/HIV cells; test: cells; assay type: cell-based; details: for 50% Inhibitory Concentration (IC₅₀): giant cell formation inhibition, as indicated in Example 4
Procedure: After a test drug was dissolved in methanol medium for tissue culture was added to the solution to make a definite concentration. The concentration of methanol was finally adjusted to less than 2 %. HIV persistent injection Molt-4 cells (Molt-4/HIV cells) were precultured for 24 hours in the presence of the compound. The precultured Molt-4/HIV cells were mixed with HIV-non-infected Molt-4 cells, whereby the compound was prepared to have the same concentration as that of the preculture. The mixture was then cultured. Giant cell formation was compared between chemically intact control cells and the group to which the compound has been added 5 and 20 hours after mixing the culture to evaluate the effect of the chemical. The evaluation was made based on the method of Yamamoto et al. (Virology, 164, 542 - 546, 1988). The evaluation effect is shown in Table 1 in terms of fusion index.

mice = test: Acute toxicity test, oral administration to mice; assay type: in vivo; details: 4g/kg administered orally, 3 mice in each group
Excerpt: The compounds of the present invention have low toxicity.

[2] = Homo sapiens, MOLT-4, read-out: 50% Inhibitory Concentration (IC₅₀)
[3] = 12.5 µg/ml, mixed culture 5 hours
[4] = 12.5 µg/ml, mixed culture 20 hours
[5] = 25 µg/ml, mixed culture 5 hours
[6] = 25 µg/ml, mixed culture 20 hours
[7] = 50 µg/ml, mixed culture 5 hours
[8] = 50 µg/ml, mixed culture 20 hours
[9] = 100 µg/ml, mixed culture 5 hours
[10] = 100 µg/ml, mixed culture 20 hours
[11] = 200 µg/ml, mixed culture 5 hours
[12] = 200 µg/ml, mixed culture 20 hours
[13] = Homo sapiens, MOLT-4, 5 h, read-out: Giant cell formation inhibitory rate (%)
[14] = Homo sapiens, MOLT-4, 20 h, read-out: Giant cell formation inhibitory rate (%)
[15] = Homo sapiens, MOLT-4, read-out: 50 % of inhibitory concentration (IC₅₀ value) of the giant cell formation inhibition

## OC[C@@H]1[C@@H](O)[C@H](O)[C@@H](O)CN1CCOc1ccccc1 [Control, N-(2-Phenoxyethyl)-1-deoxynojirimycin, reference compound]
[1]; [2]
  IC50: 20 to 40 µg/mL (≈ 70.6 to 141 µM)

## OC[C@@H]1[C@@H](O)[C@H](O)[C@@H](O)CN1CCCC(F)(F)F [Example 15, N-(4,4,4-Trifluorobutyl)-1-deoxynojirimycin]
[1]; [2]
  IC50: 5 to 10 µg/mL (≈ 18.3 to 36.6 µM)

## OC[C@@H]1[C@@H](O)[C@H](O)[C@@H](O)CN1CCCCC(F)(F)F [Example 16, N-(5,5,5-Trifluoropentyl)-1-deoxynojirimycin]
[1]; [2]
  IC50: 2.5 to 5 µg/mL (≈ 8.7 to 17.4 µM)

## OC[C@@H]1[C@@H](O)[C@H](O)[C@@H](O)CN1CC=Cc1ccccc1 [Example 2, N-(3-phenyl-2-propenyl)-1-deoxynojirimycin]
[1]; [3]
  Fusion index: 0.14
[1]; [4]
  Fusion index: -0.03
[1]; [5]
  Fusion index: 0.17
[1]; [6]
  Fusion index: -0.08
[1]; [7]
  Fusion index: 0.06
[1]; [8]
  Fusion index: -0.07
[1]; [9]
  Fusion index: -0.10
[1]; [10]
  Fusion index: 0.10
[1]; [11]
  Fusion index: -0.08
[1]; [12]
  Fusion index: 0.10
[1]; [13]
  inhibition at 12.5 µg/mL: 74.1%
  inhibition at 25 µg/mL: 68.5%
  inhibition at 50 µg/mL: 88.9%
  inhibition at 100 µg/mL: 100%
  inhibition at 200 µg/mL: 100%
[1]; [14]
  inhibition at 12.5 µg/mL: 100%
  inhibition at 25 µg/mL: 100%
  inhibition at 50 µg/mL: 100%
  inhibition at 100 µg/mL: 94.7%
  inhibition at 200 µg/mL: 94.7%
[1]; [15]
  IC50: 2.5 to 5 µg/mL (≈ 8.95 to 17.9 µM)
[1]; Table 2
  giant cell formation inhibiting effect: 90-100%
mice
  survival in the acute toxicity test: all of the tested mice survived

## OC[C@@H]1[C@@H](O)[C@H](O)[C@@H](O)CN1CC=Cc1ccccc1F [Example 13, N-[3-(2-Fluorophenyl)-2-propenyl]-1-deoxynojirimycin]
[1]; [2]
  IC50: 2.5 to 5 µg/mL (≈ 8.41 to 16.8 µM)

## Cc1ccc(CCCN2C[C@H](O)[C@@H](O)[C@H](O)[C@H]2CO)cc1 [Example 10, N-[3-(4-Methylphenyl)-propyl]-1-deoxynojirimycin]
[1]; [2]
  IC50: 5 to 10 µg/mL (≈ 16.9 to 33.9 µM)

## OC[C@@H]1[C@@H](O)[C@H](O)[C@@H](O)CN1CCCc1ccc(F)cc1 [Example 11, N-[3-(4-Fluorophenyl)-propyl]-1-deoxynojirimycin]
[1]; [2]
  IC50: 5 to 10 µg/mL (≈ 16.7 to 33.4 µM)

## OC[C@@H]1[C@@H](O)[C@H](O)[C@@H](O)CN1CCC(c1ccccc1)c1ccccc1 [Example 3, N-(3,3-diphenyl-propyl)-1-deoxynojirimycin]
[1]; 3.13 µg/ml, mixed culture 5 hours
  Fusion index: 0.26
[1]; 3.13 µg/ml, mixed culture 20 hours
  Fusion index: 1.50
[1]; 6.25 µg/ml, mixed culture 5 hours
  Fusion index: 0.54
[1]; 6.25 µg/ml, mixed culture 20 hours
  Fusion index: 2.16
[1]; [3]
  Fusion index: 0.26
[1]; [4]
  Fusion index: 1.37
[1]; [5]
  Fusion index: 0.50
[1]; [6]
  Fusion index: 0.89
[1]; [7]
  Fusion index: 0.32
[1]; [8]
  Fusion index: 0.62
[1]; [13]
  inhibition at 3.13 µg/mL: 51.9%
  inhibition at 6.25 µg/mL: 0%
  inhibition at 12.5 µg/mL: 51.9%
  inhibition at 25 µg/mL: 7.4%
  inhibition at 50 µg/mL: 40.7%
[1]; [14]
  inhibition at 3.13 µg/mL: 21.1%
  inhibition at 6.25 µg/mL: 0%
  inhibition at 12.5 µg/mL: 27.9%
  inhibition at 25 µg/mL: 53.2%
  inhibition at 50 µg/mL: 67.4%

## OC[C@@H]1[C@@H](O)[C@H](O)[C@@H](O)CN1CCC=Cc1ccc(Cl)cc1 [Example 8, N-[4-(4-Chlorophenyl)-3-butenyl]-1-deoxynojirimycin]
[1]
  50% Inhibitory Concentration (IC₅₀): 70 µg/mL

## OC[C@@H]1[C@@H](O)[C@H](O)[C@@H](O)CN1CCCc1ccccc1 [Example 1, N-(3-phenylpropyl)-1-deoxynojirimycin]
[1]; [3]
  Fusion index: 0.11
[1]; [4]
  Fusion index: 0.34
[1]; [5]
  Fusion index: -0.07
[1]; [6]
  Fusion index: 0.18
[1]; [7]
  Fusion index: 0.19
[1]; [8]
  Fusion index: 0.13
[1]; [9]
  Fusion index: 0
[1]; [10]
  Fusion index: 0.05
[1]; [11]
  Fusion index: 0.23
[1]; [12]
  Fusion index: 0.18
[1]; 20 hours after mixing the culture
  effect of inhibiting the formation of giant cells: about 90%
[1]; [13]
  inhibition at 12.5 µg/mL: 79.6%
  inhibition at 25 µg/mL: 100%
  inhibition at 50 µg/mL: 64.8%
  inhibition at 100 µg/mL: 100%
  inhibition at 200 µg/mL: 57.4%
[1]; [14]
  inhibition at 12.5 µg/mL: 82.1%
  inhibition at 25 µg/mL: 90.5%
  inhibition at 50 µg/mL: 93.2%
  inhibition at 100 µg/mL: 97.4%
  inhibition at 200 µg/mL: 90.5%
[1]; [15]
  IC50: 5 to 10 µg/mL (≈ 17.8 to 35.5 µM)
[1]; compared to the control cells
  microscopic observation of giant cell formation: clearly inhibited the formation of giant cells

## OC[C@@H]1[C@@H](O)[C@H](O)[C@@H](O)CN1CCCCc1ccccc1 [Example 5, N-(4-Phenylbutyl)-1-deoxynojirimycin]
[1]; [2]
  IC50: 5 to 10 µg/mL (≈ 16.9 to 33.9 µM)

## OC[C@@H]1[C@@H](O)[C@H](O)[C@@H](O)CN1CC=Cc1cccc(F)c1 [Example 4, N-[3-(3-fluorophenyl) 2-propenyl]-1-deoxynojirimycin]
[1]; 2.5 µg/ml, mixed culture 20 hours
  Fusion index: 1.38
[1]; 5 µg/ml, mixed culture 20 hours
  Fusion index: 1.04
[1]; 10 µg/ml, mixed culture 20 hours
  Fusion index: 0.52
[1]; 20 µg/ml, mixed culture 20 hours
  Fusion index: 0.32
[1]; 40 µg/ml, mixed culture 20 hours
  Fusion index: 0.01
[1]; [14]
  inhibition at 2.5 µg/mL: 28%
  inhibition at 5 µg/mL: 46%
  inhibition at 10 µg/mL: 73%
  inhibition at 20 µg/mL: 83%
  inhibition at 40 µg/mL: 99%
[1]; [15]
  IC50: 5 to 10 µg/mL (≈ 16.8 to 33.6 µM)

## OC[C@@H]1[C@@H](O)[C@H](O)[C@@H](O)CN1CC=Cc1ccccc1Cl [Example 7, N-[3-(2-Chlorophenyl)-2-propenyl]-1-deoxynojirimycin]
[1]
  50% Inhibitory Concentration (IC₅₀): 60 µg/mL

## OC[C@@H]1[C@@H](O)[C@H](O)[C@@H](O)CN1CCC=Cc1ccccc1F [Example 14, N-[4-(2-Fluorophenyl)-3-butenyl]-1-deoxynojirimycin]
[1]; [2]
  IC50: 5 to 10 µg/mL (≈ 16.1 to 32.1 µM)

## OC[C@@H]1[C@@H](O)[C@H](O)[C@@H](O)CN1CC=Cc1cccc(Cl)c1 [Example 6, N-[3-(3-Chlorophenyl)-2-propenyl]-1-deoxynojirimycin]
[1]
  50% Inhibitory Concentration (IC₅₀): 50 µg/mL

## OC[C@@H]1[C@@H](O)[C@H](O)[C@@H](O)CN1CC=C(c1ccc(F)cc1)c1ccc(F)cc1 [Example 9, N-[3,3-Di(4-fluorophenyl)-2-propenyl]-1-deoxynojirimycin]
[1]
  50% Inhibitory Concentration (IC₅₀): >100 µg/mL

## OC[C@@H]1[C@@H](O)[C@H](O)[C@@H](O)CN1CC=Cc1ccc(F)cc1 [Example 12, N-[3(4-Fuluorophenyl)-2-propenyl]-1-deoxynojirimycin]
[1]
  50% Inhibitory Concentration (IC₅₀): 10 µg/mL

Reference: patent publication EP0350012A2, “Antiviral composition” (MEIJI SEIKA KAISHA LTD., priority 1988, dated 1990)
